Assay results taken from article PMC8253220, “Molecular design, synthesis and in vitro biological evaluation of thienopyrimidine–hydroxamic acids as chimeric kinase HDAC inhibitors: a challenging approach to combat cancer” (Journal of Enzyme Inhibition and Medicinal Chemistry, 2021).
Several values for one entry are separate records, joined by “and”; a condition that tells them apart may be missing. Identical values can stand only once.

What was measured:
Assay in all cases: NCI one-dose screen
Assay type in all cases: cell-based, human
[1] = tested on: SF-268; conditions: CNS SF-268, 10 µM single dose
Experimental: (§1) All of the synthesised structures were selected and submitted to NCI based on computer modelling techniques and the degree of diversity of structures for the evaluation of their antiproliferative activity. The 20 synthesised compounds were selected with their respective NCI codes [NCS D-820157- NCS D-820176] for the inhibition percent assay at an initial single dose of 10 μM on the full NCI 60 cell panel, where the mean graph of the percent growth for all compounds on the full NCI cell panel is evaluated, compared to the untreated control cells (Supplementary Material). In vitro cell line inhibition % of all synthesised compounds is represented in (Table 1 of Supplementary Material).
(§2) All of the synthesised compounds (20) were submitted to NCI and selected for in vitro anticancer assay against a panel of 60 cancer cell lines. The methodology of assay and calculations is as reported.

[2] = tested on: SF-539; conditions: CNS SF-539, 10 µM single dose
Experimental: as §1, §2

[3] = tested on: HOP-62; conditions: NSCLC HOP-62, 10 µM single dose
Experimental: as §1, §2

[4] = tested on: 786-0; conditions: Renal 786-0, 10 µM single dose
Experimental: as §1, §2

[5] = tested on: OVCAR-3; conditions: Ovarian OVCAR-3, 10 µM single dose
Experimental: as §1, §2

[6] = tested on: RXF 393; conditions: Renal RXF 393, 10 µM single dose
Experimental: as §1, §2

[7] = tested on: HCT-116; conditions: Colon HCT-116, 10 µM single dose
Experimental: as §1, §2

[8] = tested on: NCI-H226; conditions: NSCLC NCI-H226, 10 µM single dose
Experimental: as §1, §2

[9] = tested on: SR; conditions: Leukemia SR, 10 µM single dose
Experimental: as §1, §2

[10] = tested on: A549/ATCC; conditions: NSCLC A549/ATCC, 10 µM single dose
Experimental: as §1, §2

[11] = tested on: EKVX; conditions: NSCLC EKVX, 10 µM single dose
Experimental: as §1, §2

[12] = tested on: IGROV1; conditions: Ovarian IGROV1, 10 µM single dose
Experimental: as §1, §2

[13] = tested on: MDA-MB-231/ATCC; conditions: Breast MDA-MB-231/ATCC, 10 µM single dose
Experimental: as §1, §2

[14] = tested on: HS 578T; conditions: Breast HS 578T, 10 µM single dose
Experimental: as §1, §2

[15] = tested on: T-47D; conditions: Breast T-47D, 10 µM single dose
Experimental: as §1, §2

[16] = tested on: UACC-257; conditions: Melanoma UACC-257, 10 µM single dose
Experimental: as §1, §2

[17] = tested on: CAKI-1; conditions: Renal CAKI-1, 10 µM single dose
Experimental: as §1, §2

[18] = tested on: MOLT-4; conditions: Leukemia MOLT-4, 10 µM single dose
Experimental: as §1, §2

[19] = tested on: SF-295; conditions: CNS SF-295, 10 µM single dose
Experimental: as §1, §2

[20] = tested on: HCC-2998; conditions: Colon HCC-2998, 10 µM single dose
Experimental: as §1, §2

[21] = tested on: SNB-19; conditions: CNS SNB-19, 10 µM single dose
Experimental: as §1, §2

[22] = tested on: SW-620; conditions: Colon SW-620, 10 µM single dose
Experimental: as §1, §2

[23] = tested on: RPMI-8226; conditions: Leukemia RPMI-8226, 10 µM single dose
Experimental: as §1, §2

[24] = tested on: LOX IMVI; conditions: Melanoma LOX IMVI, 10 µM single dose
Experimental: as §1, §2

[25] = tested on: M14; conditions: Melanoma M14, 10 µM single dose
Experimental: as §1, §2

[26] = tested on: KM12; conditions: Colon KM12, 10 µM single dose
Experimental: as §1, §2

[27] = tested on: DU-145; conditions: Prostate DU-145, 10 µM single dose
Experimental: as §1, §2

[28] = tested on: SK-OV-3; conditions: Ovarian SK-OV-3, 10 µM single dose
Experimental: as §1, §2

[29] = tested on: UACC-62; conditions: Melanoma UACC-62, 10 µM single dose
Experimental: as §1, §2

[30] = tested on: MALME-3M; conditions: Melanoma MALME-3M, 10 µM single dose
Experimental: as §1, §2

[31] = tested on: MCF7; conditions: Breast MCF7, 10 µM single dose
Experimental: as §1, §2

[32] = tested on: NCI-H522; conditions: NSCLC NCI-H522, 10 µM single dose
Experimental: as §1, §2

[33] = tested on: TK-10; conditions: Renal TK-10, 10 µM single dose
Experimental: as §1, §2

[34] = tested on: COLO 205; conditions: Colon COLO 205, 10 µM single dose
Experimental: as §1, §2

[35] = tested on: ACHN; conditions: Renal ACHN, 10 µM single dose
Experimental: as §1, §2

[36] = tested on: HOP-92; conditions: NSCLC HOP-92, 10 µM single dose
Experimental: as §1, §2

[37] = tested on: SK-MEL-2; conditions: Melanoma SK-MEL-2, 10 µM single dose
Experimental: as §1, §2

Cc1c(C(=O)NCCC(=O)NO)sc2ncnc(Nc3ccccc3)c12 [Compound 19b, N-(3-(hydroxyamino)-3-oxopropyl)-5-methyl-4-(phenylamino)thieno[2,3-d]pyrimidine-6-carboxamide]
Growth Percent [1]: 97.0% | Growth Percent [2]: 93.6% and 93.63% | Growth Percent [3]: 100.4% and 100.46% | Growth Percent [4]: 102.5% and 102.58% | Growth Percent [5]: 115.3% and 115.34% | Growth Percent [6]: 94.1% and 94.17% | Growth Percent [7]: 105.6% and 105.69% | Growth Percent [8]: 89.4% and 89.44% | Growth Percent [9]: 104.5% and 104.58% | Growth Percent [10]: 98.3% | Growth Percent [11]: 87.3% and 87.34% | Growth Percent [12]: 101.8% and 101.82% | Growth Percent [13]: 101.7% and 101.73% | Growth Percent [14]: 103.8% and 103.85% | Growth Percent [15]: 101.18% | Growth Percent [16]: 105.0% and 105.04% | Growth Percent [17]: 96.2% and 96.21% | Growth Percent [18]: 107.4% and 107.47% | Growth Percent [19]: 91.8% and 91.88% | Growth Percent [20]: 97.7% | Growth Percent [21]: 99.8% and 99.82% | Growth Percent [22]: 99.6% and 99.64% | Growth Percent [23]: 103.3% and 103.33% | Growth Percent [24]: 93.7% | Growth Percent [25]: 106.1% and 106.19% | Growth Percent [26]: 101.9% and 101.98% | Growth Percent [27]: 108.0% and 108.08% | Growth Percent [28]: 122.0% and 122.03% | Growth Percent [29]: 95.6% and 95.69% | Growth Percent [30]: 102.5% and 102.54% | Growth Percent [31]: 92.3% and 92.31% | Growth Percent [32]: 90.5% and 90.58% | Growth Percent [33]: 108.2% and 108.29% | Growth Percent [34]: 110.7% and 110.74% | Growth Percent [35]: 106.3% and 106.37% | Growth Percent [36]: 102.5% | Growth Percent [37]: 108.6% and 108.65%

COc1cccc(NC(=O)Nc2ccc(Nc3ncnc4sc(C(=O)NCCC(=O)NO)c(C)c34)cc2)c1 [Compound 11b, 1–(4-(6-((3-(hydroxyamino)-3-oxopropyl)carbamoyl)-5-methylthieno[2,3-d]pyrimidin-4-ylamino)phenyl)-3–(3-methoxyphenyl)urea]
Growth Percent [1]: 94.3% and 94.39% | Growth Percent [2]: 98.0% and 98.07% | Growth Percent [3]: 103.2% and 103.23% | Growth Percent [4]: 101.3% and 101.34% | Growth Percent [5]: 108.9% | Growth Percent [6]: 104.1% | Growth Percent [7]: 101.6% and 101.62% | Growth Percent [8]: 87.7% and 87.79% | Growth Percent [9]: 112.2% and 112.27% | Growth Percent [10]: 96.2% and 96.21% | Growth Percent [11]: 90.7% and 90.77% | Growth Percent [12]: 104.1% and 104.14% | Growth Percent [13]: 100.5% and 100.55% | Growth Percent [14]: 100.7% | Growth Percent [15]: 100.1% | Growth Percent [16]: 99.1% and 99.15% | Growth Percent [17]: 95.6% and 95.62% | Growth Percent [18]: 107.2% and 107.22% | Growth Percent [19]: 100.0% and 100.08% | Growth Percent [20]: 103.8% and 103.81% | Growth Percent [21]: 98.1% | Growth Percent [22]: 103.0% and 103.05% | Growth Percent [23]: 110.5% | Growth Percent [24]: 91.6% and 91.65% | Growth Percent [25]: 92.9% and 92.95% | Growth Percent [26]: 99.5% and 99.57% | Growth Percent [27]: 102.0% and 102.08% | Growth Percent [28]: 123.7% and 123.78% | Growth Percent [29]: 95.3% and 95.33% | Growth Percent [30]: 107.0% and 107.03% | Growth Percent [31]: 90.5% and 90.58% | Growth Percent [32]: 94.6% and 94.61% | Growth Percent [33]: 109.9% and 109.96% | Growth Percent [34]: 113.1% and 113.15% | Growth Percent [35]: 106.0% and 106.03% | Growth Percent [36]: 119.1% and 119.18% | Growth Percent [37]: 116.4% and 116.43%

COc1cccc(NC(=O)Nc2ccc(Nc3ncnc4sc(C(=O)NCCCC(=O)NO)c(C)c34)cc2)c1 [Compound 12b, 1–(4-(6-((4-(hydroxyamino)-4-oxobutyl)carbamoyl)-5-methylthieno[2,3-d]pyrimidin-4-ylamino)phenyl)-3–(3-methoxyphenyl)urea]
Growth Percent [1]: 95.1% | Growth Percent [2]: 98.2% and 98.26% | Growth Percent [3]: 100.4% and 100.49% | Growth Percent [4]: 105.9% | Growth Percent [5]: 99.3% and 99.38% | Growth Percent [6]: 110.4% and 110.44% | Growth Percent [7]: 99.2% and 99.29% | Growth Percent [8]: 96.6% and 96.68% | Growth Percent [9]: 108.2% and 108.25% | Growth Percent [10]: 105.8% and 105.84% | Growth Percent [11]: 92.1% and 92.11% | Growth Percent [12]: 97.0% and 97.08% | Growth Percent [13]: 97.0% and 97.05% | Growth Percent [14]: 99.2% | Growth Percent [15]: 97.6% and 97.69% | Growth Percent [16]: 104.3% and 104.35% | Growth Percent [17]: 97.1% and 97.14% | Growth Percent [18]: 104.7% and 104.76% | Growth Percent [19]: 102.5% and 102.51% | Growth Percent [20]: 108.5% and 108.55% | Growth Percent [21]: 97.9% | Growth Percent [22]: 101.5% and 101.51% | Growth Percent [23]: 106.6% and 106.68% | Growth Percent [24]: 90.7% and 90.77% | Growth Percent [25]: 104.0% and 104.04% | Growth Percent [26]: 101.3% and 101.38% | Growth Percent [27]: 98.5% and 98.54% | Growth Percent [28]: 114.7% and 114.77% | Growth Percent [29]: 95.3% and 95.39% | Growth Percent [30]: 95.2% and 95.25% | Growth Percent [31]: 91.5% | Growth Percent [32]: 81.7% and 81.76% | Growth Percent [33]: 107.7% and 107.72% | Growth Percent [34]: 111.3% and 111.31% | Growth Percent [35]: 98.6% and 98.68% | Growth Percent [36]: 112.3% and 112.35% | Growth Percent [37]: 94.6% and 94.66%
